US20240269238A1, “Therapeutic Regimens and Methods for Reducing Body Weight in a Subject with Fatty Liver Disease using a GLP-1R and GCGR Agonist” (Spitfire Pharma LLC, priority 2022, published 2024)

Tests used:
liver fat content = test: Phase 1b 24-week NAFLD study (Example 3): liver fat content and liver volume by MRI-PDFF; assay type: in vivo, human
Source text: Provided herein is disclosure of a 12-week extension study of the study provided in Example 1, providing a 24-week a Phase 1b, randomized, double-blind, placebo-controlled study to assess the effects of pemvidutide (also termed herein as ALT-801), the safety of pemvidutide and effects on weight loss, hepatic fat fraction, anthropometric parameters, lipid metabolism, as well as inflammatory, fibrosis and other markers in diabetic and non-diabetic (type 2 diabetes) overweight and obese (BMI≥28.0 kg/m^2) subjects with NAFLD (defined as liver fat content (LFC) by MRI-PDFF ≥10%; absence of significant fibrosis, defined as FibroScan® LSM ≤10 kPa), alanine aminotransferase (ALT) and aspartate aminotransferase (AST) laboratory values of ≤75 IU/L and HbA1c <9.5. Men and women aged 18-65 years were studied. Diabetic subjects were defined as those that have undergone stable dose (≥3 months) metformin or SLGT-2 therapy and no use of insulin, sulfonylureas, DPP-4, GLP-1 treatment; Ninety-four (94) subjects were enrolled in the initial 12-week Phase 1b NAFLD trial and 83 subjects who completed were invited to receive a total of 12 additional weeks of blinded treatment. Of those subjects, 66 consented to rollover, of which 64 were eligible to participate.
The primary endpoint of this study was a reduction in liver fat content (LFC) by MRI-PDFF at Week 24 compared to Week 0 (zero). Key secondary endpoints include percent (%) weight loss at Week 24 compared to Week 0 (zero), and liver inflammation by alanine aminotransferase (ALT) levels and corrected T1 (cT1) imaging at Week 24 as compared to Week 0 (zero). Adverse events (AEs), including serious and severe AEs, AEs leading to discontinuation, GI tolerability, vital signs, and glycemic control including fasting glucose and HbA1c levels were also measured.

[1] = Phase II 24-week interim analysis in non-diabetic obese and overweight subjects (NCT05295875, Example 4); assay type: in vivo, human
Source text: Results presented in this example correspond to a 24-week interim analysis obtained from a placebo-controlled phase II study (ClinicalTrials.gov Identifier: NCT05295875) evaluating pemvidutide (ALT-801) in obese and overweight subjects. It is estimated that 70 to 75% subjects of this population have NAFLD while 34% may have NASH (Quek J. et al. Global prevalence of non-alcoholic fatty liver disease and non-alcoholic steatohepatitis in the overweight and obese population: a systematic review and meta-analysis. Lancet Gastroenterol Hepatol. 2023 January; 8(1):20-30). Key eligibility criteria were: (1) Men and women, ages 18-75 years; (2) at least one unsuccessful weight loss attempt per Investigator judgement; (3) Body Mass Index (BMI) ≥30 kg/m2 or BMI ≥27 kg/m2 with at least one obesity-related comorbidity (history of cardiovascular disease, hypertension, dyslipidemia, pre-diabetes or obstructive sleep apnea) and (4) non-diabetes (HbA1c ≤6.5% and fasting glucose ≤125 mg/dL). Eligible subjects were randomized 1:1:1:1 to one of the following treatment arms: Group 1 (39 subjects): pemvidutide 1.2 mg SC once weekly for 24 weeks; Group 2 (40 subjects): pemvidutide 1.8 mg administered subcutaneously once weekly for 24 weeks; Group 3 (40 subjects): pemvidutide 0.6 mg administered subcutaneously for 1 week, 1.2 mg administered subcutaneously for 1 week, 1.8 mg administered subcutaneously once weekly for 2 weeks, followed by 2.4 mg administered subcutaneously once weekly for 20 additional weeks (in sequence) and Group 4 (41 subjects): Placebo administered subcutaneously once weekly for 24 weeks. The randomization of subjects was stratified based on sex and baseline body mass index (BMI <35 kg/m2 vs. ≥35 kg/m2). A minimum of 25% of randomized subjects were male. All subjects received counselling on a reduced-calorie diet of 1200-1500 calories for individuals <250 lbs (113.6 kg) and 1500-1800 calories for individuals ≥250 lbs (113.6 kg) and a gradual increase in physical activity (targeting 150 min of physical activity per week) by a qualified healthcare professional at screening and at subsequent visits during the treatment period. Subjects were instructed to record their food intake and physical activity daily, and compliance with lifestyle interventions will be assessed by the investigator on a regular basis. A subgroup of subjects were subjected MRI-PDFF to evaluate the hepatic fat fraction in as well as composition to measure total body adipose tissue (AT) and adipose tissue-free mass (ATFM).
FIG. 27 presents the mean percentage weight loss over time in all evaluated subjects across the three pemvidutide doses and placebo over 24 weeks. Results are presented as efficacy estimand that assumes subjects remained on treatment for the entire duration, with missing values handled by Mixed Models for Repeated Measures. […] FIG. 28 presents the mean percentage weight loss (presented as efficacy estimand as described above) that was achieved over 24 weeks with pemvidutide and placebo in a subgroup of subjects with baseline body weight ≤115 kg. […] This phenomenon may relate to a lower level of drug exposure in subjects with higher body weight, and would support the possibility to increase dose levels in this population to maximize efficacy. FIG. 29 presents a weight loss responder analysis based on calculation of percentage of subjects who respectively achieve ≥5%, ≥10% and ≥15% weight loss across the three pemvidutide doses and placebo. FIG. 30 presents the percentage weight loss achieved across the four groups comparing Hispanic versus non-Hispanic subjects. […] Waist circumference is an index of central or abdominal obesity recommended by the WHO to assess the risk of metabolic diseases such as NAFLD and NASH and cardiovascular diseases.

For `CC[C@H](C)[C@H](NC(=O)[C@H](Cc1ccccc1)NC(=O)[C@H](CCC(=O)O)NC(=O)[C@@H]1CCCCNC(=O)CC[C@H](NC(=O)[C@H](CC(=O)O)NC(=O)[C@H](CC(C)C)NC(=O)[C@H](Cc2ccc(O)cc2)NC(=O)[C@H](CCCCN)NC(=O)[C@H](CO)NC(=O)[C@H](Cc2ccc(O)cc2)NC(=O)[C@H](CC(=O)O)NC(=O)[C@H](CO)NC(=O)[C@@H](NC(=O)[C@H](Cc2ccccc2)NC(=O)[C@@H](NC(=O)CNC(=O)[C@H](CCC(N)=O)NC(=O)C(C)(C)NC(=O)[C@@H](N)Cc2c[nH]cn2)[C@@H](C)O)[C@H](C)O)C(=O)N[C@@H](CCCCNC(=O)C2O[C@@H](OCCCCCCCCCCCCCCCCCC(=O)O)C(O)C(O)[C@@H]2O)C(=O)N[C@@H](C)C(=O)N[C@@H](C)C(=O)N1)C(=O)N[C@@H](CCC(N)=O)C(=O)N[C@@H](Cc1c[nH]c2ccccc12)C(=O)N[C@@H](CC(C)C)C(=O)N[C@@H](CC(C)C)C(=O)N[C@@H](CCC(N)=O)C(=O)N[C@H](C(N)=O)[C@@H](C)O` (stereo partly shown) [ALT-801, Pemvidutide], the “mean absolute reduction in liver fat (MRI-PDFF)” value (“mean absolute reduction” below) (liver fat content; 1.2 mg per week, week 24) was 11.2%, the “mean relative reduction in liver fat (MRI-PDFF)” value (shortened to “mean relative reduction”) (liver fat content; 1.2 mg per week, week 24) was 56.3% and the “liver fat of an exemplary subject (MRI-PDFF)” value (liver fat content; 1.8 mg dose, Week 24, 32.3% at baseline) was 1.7%. For the same compound, the “mean absolute reduction” value (liver fat content; 1.8 mg per week, week 24) was 17%, the “mean relative reduction” value (liver fat content; 1.8 mg per week, week 24) was 75.2% and the “proportion of subjects with normalization (<=5%) in liver fat content” value (liver fat content; 1.8 mg, week 24) was 53.8%. For the same compound, the “mean absolute reduction” value (liver fat content; 2.4 mg per week, week 24) was 15.6%, the “mean relative reduction” value (liver fat content; 2.4 mg per week, week 24) was 76.4% and the “proportion of subjects with normalization (<=5%) in liver fat content” value (liver fat content; 2.4 mg, week 24) was 45.3%. For the same compound, the “relative liver fat reductions (study conclusion)” value (liver fat content; 24 weeks) was “greater than 75%”, the “liver volume (MRI-PDFF)” value (liver fat content; all doses, week 24) was “robust reduction in liver volume” and the “percentage of subjects achieving at least 30% and 50% reduction in liver fat content vs placebo” value (liver fat content; all doses, week 24) was “highly significant”. The heart rate ([1]; 1.2, 1.8, 2.4 mg, 24-week treatment) was “do not induce a significant change in heart rates”, the “systolic and diastolic blood pressure” value ([1]; 24-week treatment) was “improves both systolic and diastolic blood pressures in a dose dependent manner” and the “weight loss, Hispanic versus non-Hispanic subjects” value ([1]; 24 weeks) was “tend to lose less body weight”. The serum lipids ([1]; all doses, week 24) was “decreased as compared to baseline”, the waist circumference ([1]; all doses, week 24) was “significant reduction in waist circumference” and the “mean percentage weight loss over time” value ([1]; all evaluated subjects, 1.2, 1.8, 2.4 mg, 24 weeks) was “progressive, dose-dependent weight loss”. The “weight loss in subgroup vs all subjects” value ([1]; baseline body weight <=115 kg, 24 weeks) was “higher levels of weight loss”.
